Patent US20240076347A1, “METHODS FOR PREVENTING FUNGAL INFECTIONS” (Cidara Therapeutics, Inc., priority 2016, published 2024)
Numbered stars: 1 amine (or outer) side, 2 acyl side, 3 side chain; on linkers, the order of the positions; unused ones are H or OH. Bridge positions count the residues as written; N and C are the ends. Square brackets hold non-standard residues; d marks the D form. Peptide text beside a SMILES is read from it. * marks the point of attachment. ξ: configuration not given here. Orn(4R-OH,5R-OCH2CH2NMe3+) = C[N+](C)(C)CCO[C@@H](N[*:3])[C@H](O)C[C@H](N[*:1])C(=O)[*:2]; pTerphenylCO(4''-OnC5H11) = CCCCCOc1ccc(-c2ccc(-c3ccc(C(=O)*)cc3)cc2)cc1; hTyr(3S-OH,4S-OH) = N[C@H](C(=O)O)[C@H](O)[C@@H](O)c1ccc(O)cc1; X1 = C[C@H]1CN([*:1])C(C(=O)[*:2])C1O; Hyp = O=C(O)[C@@H]1C[C@@H](O)CN1; ξT = CC(O)C(N)C(=O)O

How the values were obtained:
[1] = test system: Pneumocystis murina; experiment: Pneumocystis murina mouse prophylaxis study, lung nuclei and asci counts; format: in vivo
Procedure: C3H/HeN mice (Charles River) were infected with P. murina by intranasal inoculation of P. murina organisms at 2×10^6/50 μl from a liquid nitrogen repository. Prior to inoculation, the P. murina were pre-incubated overnight in RPMI 1640 medium supplemented with calf serum and antibiotics to eliminate any bacterial contamination. The immune systems of the mice were suppressed by the addition of dexamethasone at 4 μ[…] to acidified drinking water (sulfuric acid at 1 ml/liter). Acidification is used to prevent secondary microbial infections. The mice were divided into a negative control group (control steroid-C/S), positive control group (trimethoprim/sulfamethoxazole-TMP/SMX) and treatment groups. Drugs to be tested were administered intraperitoneally (IP) on a mg/kg/d basis; dose, route, and frequency of administration varied depending on the agent being tested. […] Immune suppression and treatment continued for the entire 6 week study. At that time, the mice were euthanized by CO2 and lungs processed for analysis by homogenization. Slides were made from the lung homogenates at different dilutions and stained with Diff-Quik to quantify the trophic forms and cresyl echt violet to quantify the asci. Efficacy is based on the reduction of organism burden between the treatment groups and the negative control group was determined by microscopic evaluation. The nuclei and asci counts for each lung were log transformed and statistical analysis was determined by the analysis of variance (ANOVA); individual groups were compared by the Student-Newman-Keuls t test for multiple comparisons using GraphPad Prism.

[2] = Previous toxicology studies by the IV route; format: in vivo, cynomolgus monkeys; settings: up to at least 30 mg/kg

CCCCCOc1ccc(-c2ccc(-c3ccc(C(=O)N[C@H]4C[C@@H](O)[C@@H](OCC[N+](C)(C)C)NC(=O)C5C(O)[C@@H](C)CN5C(=O)[C@H]([C@@H](C)O)NC(=O)[C@H]([C@H](O)[C@@H](O)c5ccc(O)cc5)NC(=O)[C@@H]5C[C@@H](O)CN5C(=O)C(C(C)O)NC4=O)cc3)cc2)cc1 (stereo partly drawn) [CD101] ({pTerphenylCO(4''-OnC5H11)}-[Orn(4R-OH,5R-OCH2CH2NMe3+)][ξT][Hyp][hTyr(3S-OH,4S-OH)]T[X1]; lactam 1-C)
asci levels (lung) ([1]; 5 CD101 treatment groups vs positive control TMP/SMX): no difference in efficacy
asci levels (lung) ([1]; IP, all CD101 treatment groups, 6 weeks, vs negative control): statistically significant reduction in asci levels
nuclei levels (lung) ([1]; IP, all dose levels except 0.2 mg/kg/1×/week, 6 weeks, vs negative control): statistically significant reduction in nuclei levels
human equivalent doses preventing Pneumocystis pneumonia in mice ([1]; mice): < 50 mg
nuclei levels (lung) ([1]; three of the CD101 treatment groups, 6 weeks): equally as efficacious as the positive control TMP/SMX
safety and tolerability [2]: safe and well tolerated
